# From US12109207B2, “Methods of using 4(1H)-quinolone derivatives” (Academia Sinica, priority 2019, dated 2024)
# Tests used:
# PC9 = test: Cell cytotoxicity assay (MTS), PC9; type: cell-based; conditions: Homo sapiens, PC-9, PC9, 72 h
# Protocol: (§1) Cells were seeded into the wells of 96-well plates (2000 cells/well). After an overnight culture, the cells were treated with different concentrations of a compound for 72 h. The CellTiter 96 AQueous one-solution cell proliferation assay (MTS) reagent was used to determine cytotoxicity. After treatment with a compound, 20 μL of the MTS reagent was added to each well and the plates were incubated at 37° C. for 1-4 h. Next, the absorbance at 490 nm of the culture medium in each well was determined using a VersaMax microplate reader (Molecular Devices).
# Hs578t = test: Cell cytotoxicity assay (MTS), Hs578t; type: cell-based; conditions: Homo sapiens, Hs-578T, 72 h
# Protocol: as §1
# 37T = test: Cell cytotoxicity assay (MTS), 37T; type: cell-based; conditions: Homo sapiens, 72 h
# Protocol: as §1
# 82T = test: Cell cytotoxicity assay (MTS), 82T; type: cell-based; conditions: Homo sapiens, 72 h
# Protocol: as §1
# IGR-OV1 = test: Cell cytotoxicity assay (MTS), IGR-OV1; type: cell-based; conditions: Homo sapiens, IGROV-1
# Protocol: as §1
# SAS = test: Cell cytotoxicity assay (MTS), SAS; type: cell-based; conditions: Homo sapiens
# Protocol: as §1
# OECM1 = test: Cell cytotoxicity assay (MTS), OECM1; type: cell-based; conditions: Homo sapiens
# Protocol: as §1
# HCT116 = test: Cell cytotoxicity assay (MTS), HCT116; type: cell-based; conditions: Homo sapiens, HCT-116
# Protocol: as §1
# HT-29 = test: Cell cytotoxicity assay (MTS), HT-29; type: cell-based; conditions: Homo sapiens
# Protocol: as §1
# Colon205 = test: Cell cytotoxicity assay (MTS), Colon205; type: cell-based; conditions: Homo sapiens
# Protocol: as §1
# Du-145 = test: Cell cytotoxicity assay (MTS), Du-145; type: cell-based; conditions: Homo sapiens
# Protocol: as §1
# PC-3 = test: Cell cytotoxicity assay (MTS), PC-3; type: cell-based; conditions: Homo sapiens
# Protocol: as §1
# Molt4 = test: Cell cytotoxicity assay (MTS), Molt4; type: cell-based; conditions: Homo sapiens, MOLT-4
# Protocol: as §1
# CCRF-CEM = test: Cell cytotoxicity assay (MTS), CCRF-CEM; type: cell-based; conditions: Homo sapiens
# Protocol: as §1
# [1] = test system: normal bronchial epithelial (NBE) cells; test: Cell cytotoxicity assay (MTS), normal bronchial epithelial cells; type: cell-based; conditions: Homo sapiens, normal cell line NBE (printed NEB in Table 2)
# Protocol: as §1
# KBtax = test: Cell cytotoxicity assay (MTS), KBtax; type: cell-based, human
# Protocol: as §1
# KBvin = test: Cell cytotoxicity assay (MTS), KBvin; type: cell-based, human
# Protocol: as §1
# CEM/VBL = test: Cell cytotoxicity assay (MTS), CEM/VBL; type: cell-based, human; conditions: CEM/VBL vs CCRF-CEM
# Protocol: as §1
# HDQP1/TAX = test: Cell cytotoxicity assay, HDQP1/TAX; type: cell-based, human
# Protocol: as §1
# [2] = test system: A549, CL1-0, PC9, and H1975; test: MTS assay, non-small cell lung cancer cell lines; type: cell-based; conditions: Homo sapiens; A549, CL1-0, PC9, H1975; 72 h MTS; read-out: IC50 values for the affected cell lines
# Protocol: as §1
# Purified porcine tubulin = biological target: T1, Purified porcine tubulin (Sus scrofa, UniProt P02554); test: In vitro tubulin polymerization assay; type: biochemical; conditions: 5 μM, A340 every min for 1 h at 37° C.
# T1 construct: purchased Cytoskeleton
# Protocol: Reagents from a Tubulin Polymerization Assay kit (Cytoskeleton) were used according to the manufacturer's instructions. Purified porcine tubulin (4 mg/mL; >99% purity) in G-PEM buffer (80 mM PIPES, 2 mM MgCl2, 0.5 mM EGTA, 1 mM GTP, 15% glycerol, pH 6.9) was mixed with each test compound in the wells of a 96-well plate. Then, the A340 value was recorded each minute for 1 h at 37° C. with the VersaMax microplate reader.
# HFB cells = test: Pro-apoptotic protein immunoblotting, HFB; type: cell-based, human; conditions: 24 to 72 h, normal HFB cells
# Protocol: The cells were harvested and lysed in RIPA buffer (20 mM Tris-HCl, 150 mM NaCl, 1 mM Na2EDTA, 1% sodium deoxycholate, 1% IGEPAL CA-630, 0.1% SDS, pH 7.5) with protease inhibitors (Roche). Protein concentration was measured by the BCA assay. For immunoprecipitation, protein extracts were incubated with mag-beads-AS1712 or mag-beads-control at 4° C. overnight and then washed five times with PBS before immunoblotting. For immunoblotting, equivalent amounts of denatured proteins were separated through SDS-PAGE gels and then transferred to PVDF membranes (Millipore), which were each blocked with 5% nonfat milk in PBS and 0.1% Tween-20 (Sigma Aldrich) for 1 h. Then each membrane was incubated with a primary antibody overnight at 4° C., followed by incubation with a horseradish peroxidase conjugated secondary antibody for 1 h at room temperature. The signal was visualized by enhanced chemiluminescence detection, and images were acquired using a BioSpectrum Imaging System (UVP).
# CL1-0 and H1975 cells = test: Cell cycle analysis (flow cytometry); type: cell-based, human; conditions: 24 h, propidium iodide
# Protocol: After treatment, cells were trypsinized and fixed in ice-cold 70% ethanol overnight. Fixed cells were washed with PBS and stained with 0.5 mL of a propidium iodide (10 μg/mL)/RNase (20 μg/mL) solution for 30 minutes. The cellular DNA content was analyzed with a FACSCanto flow cytometer (Becton Dickinson).
# [3] = biological target: T2, purified centrosomes and tubulin (Sus scrofa, UniProt P02554); test: In vitro microtubule nucleation assay; type: biochemical, porcine
# T2 construct: purchased Cytoskeleton
# Protocol: Purified centrosomes were incubated with or without AS1712 and with porcine tubulin (Cytoskeleton) in 80 mM PIPES, 1 mM MgCl2, 1 mM EGTA, and 1 mM GTP, pH 6.8 for 8 min at 37° C. Microtubule asters were fixed in 1% glutaraldehyde, sedimented onto acid-treated coverslips, and finally subjected to immunofluorescence with anti-α-tubulin. The fiber lengths of the microtubule asters were measured using MetaMorph image analysis software (n=20/group).
# T2 sequence (P02554 whole entry): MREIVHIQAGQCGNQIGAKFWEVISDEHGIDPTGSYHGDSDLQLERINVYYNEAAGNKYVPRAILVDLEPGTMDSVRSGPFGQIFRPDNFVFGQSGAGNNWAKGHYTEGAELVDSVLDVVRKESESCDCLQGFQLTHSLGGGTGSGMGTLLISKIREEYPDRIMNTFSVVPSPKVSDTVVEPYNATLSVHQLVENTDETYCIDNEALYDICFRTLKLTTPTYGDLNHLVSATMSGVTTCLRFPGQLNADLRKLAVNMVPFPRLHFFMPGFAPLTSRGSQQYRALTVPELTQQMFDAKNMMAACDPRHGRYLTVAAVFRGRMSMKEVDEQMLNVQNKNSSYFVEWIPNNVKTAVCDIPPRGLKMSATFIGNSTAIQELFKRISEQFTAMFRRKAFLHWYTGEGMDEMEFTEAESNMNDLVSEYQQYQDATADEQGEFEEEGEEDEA
# T2 sequence (P02550 whole entry partner): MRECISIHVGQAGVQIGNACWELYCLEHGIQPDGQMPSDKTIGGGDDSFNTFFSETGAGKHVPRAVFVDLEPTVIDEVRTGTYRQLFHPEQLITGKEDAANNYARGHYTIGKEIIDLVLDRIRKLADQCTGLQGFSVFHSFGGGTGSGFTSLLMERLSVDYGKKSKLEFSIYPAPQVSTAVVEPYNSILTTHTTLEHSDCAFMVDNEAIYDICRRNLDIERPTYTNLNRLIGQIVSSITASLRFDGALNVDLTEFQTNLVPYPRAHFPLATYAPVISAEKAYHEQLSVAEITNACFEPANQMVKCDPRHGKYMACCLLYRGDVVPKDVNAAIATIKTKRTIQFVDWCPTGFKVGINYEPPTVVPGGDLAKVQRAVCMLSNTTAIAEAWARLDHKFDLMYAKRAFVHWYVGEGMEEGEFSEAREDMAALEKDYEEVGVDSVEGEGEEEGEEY
# T1 sequence (P02554 whole entry): as the sequence (P02554 whole entry) above
# T1 sequence (P02550 whole entry partner): as the sequence (P02550 whole entry partner) above
smiles,measurement,setting,value
"CCOC(=O)c1ccc2[nH]c(-c3ccccc3)cc(=O)c2c1 [AS1712, Ethyl 4-oxo-2-phenyl-1,4-dihydroquinoline-6-carboxylate]",IC50,PC9,0.017 ± 0.00209 µM
same,IC50,Hs578t,0.041 ± 0.00287 µM
same,IC50,37T,0.034 ± 0.00299 µM
same,IC50,82T,0.035 ± 0.00067 µM
same,IC50,IGR-OV1,0.084 ± 0.00207 µM
same,IC50,SAS,0.078 ± 0.0104 µM
same,IC50,OECM1,0.052 ± 0.00194 µM
same,IC50,HCT116,0.05 ± 0.00081 µM
same,IC50,HT-29,0.048 ± 0.00062 µM
same,IC50,Colon205,0.057 ± 0.00517 µM
same,IC50,Du-145,0.047 ± 0.00128 µM
same,IC50,PC-3,0.045 ± 0.00177 µM
same,IC50,Molt4,0.038 ± 0.00103 µM
same,IC50,CCRF-CEM,0.045 ± 0.00045 µM
same,IC50,[1],> 10 µM
same,IC50,"KBtax; Homo sapiens, KBtax, P-gp overexpressing, paclitaxel-selected KB subline",0.03 ± 0.00065 µM
same,"RF, resistance factor (IC50 in resistant cell line/IC50 in parent cell line)",KBtax; KBtax vs KB,0.81
same,IC50,"KBvin; Homo sapiens, KBvin, P-gp overexpressing, vincristine-selected KB subline",0.037 ± 0.00077 µM
same,"RF, resistance factor (IC50 in resistant cell line/IC50 in parent cell line)",KBvin; KBvin vs KB,1
same,"RF, resistance factor (IC50 in resistant cell line/IC50 in parent cell line)",CEM/VBL,0.97
same,"RF, resistance factor (IC50 in resistant cell line/IC50 in parent cell line)",HDQP1/TAX; HDQP1/TAX vs HDQP1,0.92
same,IC50,"HDQP1/TAX; Homo sapiens, HDQ-P1, Paclitaxel-resistant subline",0.063 ± 0.0163 µM
same,IC50,[2],0.016 to 0.033 µM
same,tubulin polymerization,Purified porcine tubulin,directly inhibit tubulin polymerization
same,PARP and caspase-3,HFB cells,not affected
same,sub-G1 and G2/M-phase population,CL1-0 and H1975 cells,increased
same,formation of microtubule asters from the centrosome,[3],substantially inhibited
